Where two headings read alike, the source gives them in different places.
Assays:
human CB1 receptor = target: T1, human CB1 receptor (Homo sapiens, UniProt P21554); experiment: CB1 radioligand competitive binding assay ([3H]CP 55,940 displacement)
T1 construct: host or cells: CHO-K1

human CB2 receptor = target: T2, human CB2 receptor (Homo sapiens, UniProt P34972); experiment: CB2 radioligand competitive binding assay ([3H]CP 55,940 displacement); conditions: for Selectivity CB2: fold difference in selectivity between CB1 and CB2 binding, in the column of the receptor with the higher binding affinity
T2 construct: host or cells: CHO-K1
Experimental: Compounds of the present disclosure were tested for CB1 receptor binding affinity and for CB2 receptor binding affinity. As used herein, “binding affinity” is represented by the IC50 value, which was experimentally determined as described herein. The lower the IC50 value the higher the binding affinity. A compound of the present disclosure may be said to have “binding selectivity” if it has a higher binding affinity for one receptor compared to the other.
The membranes were prepared from CHO-K1 (Chinese hamster ovary) cells stably transfected with the human CB2 receptor (Cat. #ES-111-C; Perkin Elmer, Boston, MA). The cells were grown adherently and maintained in Ham's F12 medium containing 10% fetal bovine serum (FBS), penicillin, streptomycin and geneticin (G418) at 37° C. in a humid atmosphere of 5% CO2 following the manufacturer's instructions.
For membrane preparation the cells were washed with PBS and scraped off the plates in cold homogenization buffer (25 mM HEPES (pH 7.4), 2 mM EDTA) containing protease inhibitor cocktail (Sigma Cat. #P8340). The cell suspension was homogenized with a Pro-PK-01200D Polytron Homogenizer (Pro Scientific) and then centrifuged for 30 min at 120,000×g. The supernatant was discarded and the pellet was re-suspended in the homogenization buffer and stored at −80° C. until the time of use.
In this experiment, 3H radiolabeled CP 55,940, i.e. [3H]CP 55,940 (Perkin Elmer, Boston, MA), was used as a radioligand for the CB2 receptor to determine the binding affinity of compounds for the CB2 receptor (Scheme 7; above).
The competition binding experiments (single dose and dose-response) were performed by incubating 0.6 nM of [3H]CP55,940 (specific activity 101 Ci/mmol, Perkin Elmer) and different concentrations of compounds disclosed herein with membranes prepared as above from CHO-K1 cells expressing human CB2 receptor (1 μg of protein/well), 50 mM Tris-HCl (pH 7.4), 5 mM MgCl2, 1 mM CaCl2, and 2 mg/mL BSA.
For the single dose experiments, the compound stocks (usually 10 mM in DMSO) were diluted to working stocks in the binding buffer to give the final compound concentrations of 10 μM and 1 μM. For the dose-response experiments the test compounds were sequentially diluted to provide the desired concentration range for the IC50 determination. In each case the compounds were pre-incubated with the membrane for 20 min, before adding the radioligand.
After incubation with the radioligand for 60 min at 37° C., the incubation was terminated by rapid filtration of assay mixture through MultiScreen®HTS^+ 96-well filter plates (Millipore, Cat. #MSFCNXB), pre-soaked for 60 min with 50 mM Tris-HCl (pH 7.4) containing 0.33% polyethylenimine (PEI). The nonspecific binding (NSB) was determined in the presence of 10 μM unlabelled CP55,940. After drying the filter plate at 50° C. for at least 60 min, the filter-bound radioactivity was determined by scintillation spectrometry using the 1450 MicroBeta Plate Counter (Perkin Elmer, Boston, MA). From the dose-response experiments, the IC50 values were determined (see Table 1, CB2 IC50).
Where the test compound had about the same affinity for both receptors, this is represented by a value of 1.00 in the column for both receptors.

[1] = 0.8 nM [3H]CP 55,940, membranes from CHO-K1 cells expressing human CB1 receptor, dose-response, read-out: CB1 IC50
[2] = 0.6 nM [3H]CP55,940, membranes from CHO-K1 cells expressing human CB2 receptor, dose-response, read-out: CB2 IC50

T2 sequence (P34972 whole entry): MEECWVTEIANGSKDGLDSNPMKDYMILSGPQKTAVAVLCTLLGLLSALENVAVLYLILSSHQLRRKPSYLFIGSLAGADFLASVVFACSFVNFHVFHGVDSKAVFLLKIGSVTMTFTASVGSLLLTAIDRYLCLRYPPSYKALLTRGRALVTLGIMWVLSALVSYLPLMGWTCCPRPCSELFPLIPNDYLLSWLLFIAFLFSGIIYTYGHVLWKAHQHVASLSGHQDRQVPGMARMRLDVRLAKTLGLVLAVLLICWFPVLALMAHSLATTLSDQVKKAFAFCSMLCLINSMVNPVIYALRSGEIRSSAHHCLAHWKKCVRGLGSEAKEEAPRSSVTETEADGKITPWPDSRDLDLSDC
T1 sequence (P21554 whole entry): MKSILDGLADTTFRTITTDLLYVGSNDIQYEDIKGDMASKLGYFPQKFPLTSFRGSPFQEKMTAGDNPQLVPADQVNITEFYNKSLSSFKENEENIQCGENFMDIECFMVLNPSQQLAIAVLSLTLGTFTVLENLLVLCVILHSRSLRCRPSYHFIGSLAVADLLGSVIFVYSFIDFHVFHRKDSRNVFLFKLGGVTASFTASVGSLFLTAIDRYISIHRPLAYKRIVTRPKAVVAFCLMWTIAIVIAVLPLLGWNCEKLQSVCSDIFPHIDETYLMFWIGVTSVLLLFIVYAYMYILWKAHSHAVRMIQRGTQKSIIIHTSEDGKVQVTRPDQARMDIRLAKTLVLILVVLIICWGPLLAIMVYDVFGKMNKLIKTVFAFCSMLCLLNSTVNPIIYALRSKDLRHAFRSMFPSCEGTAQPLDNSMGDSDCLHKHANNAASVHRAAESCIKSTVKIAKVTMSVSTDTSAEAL

Q: Which results are given for `CCCCCc1cc(O)c(C/C=C(\C)CCC=C(C)C)c(O)c1S(=O)(=O)NC(C)C` [Compound 23, 3-(3,7-dimethylocta-2,6-dien-1-yl)-2,4-dihydroxy-N-isopropyl-6-pentylbenzenesulfonamide]?
A: IC50 (human CB1 receptor; [1]): > 1 µM; IC50 (human CB2 receptor; [2]): 0.1 to 0.49 µM; Selectivity CB2 (human CB2 receptor): 18.43 fold

Q: Which results are given for `CCCCCc1cc(O)c(C/C=C(\C)CCC=C(C)C)c(O)c1S(=O)(=O)NC1CCCCC1` [Compound 62, N-cyclohexyl-3-(3,7-dimethylocta-2,6-dien-1-yl)-2,4-dihydroxy-6-pentylbenzenesulfonamide]?
A: IC50 (human CB1 receptor; [1]): > 1 µM; IC50 (human CB2 receptor; [2]): 0.1 to 0.49 µM; Selectivity CB2 (human CB2 receptor): 9.04 fold

Q: With `CCCCCc1cc(O)c(C/C=C(\C)CCC=C(C)C)c(O)c1S(=O)(=O)Oc1ccccc1` [Compound 67, phenyl-3-(3,7-dimethylocta-2,6-dien-1-yl)-2,4-dihydroxy-6-pentylbenzenesulfonate] as the molecule, how does the IC50 (human CB1 receptor; [1]) read?
A: > 1 µM

Q: And the IC50 (human CB2 receptor; [2])?
A: 0.1 to 0.49 µM

Q: What about the “Selectivity CB2” value (human CB2 receptor) of the same molecule?
A: 20.83 fold

Q: Which IC50 (human CB1 receptor; [1]) does the source give for `CCCCCc1cc(O)c(C/C=C(\C)CCC=C(C)C)c(O)c1S(=O)(=O)Nc1ccccc1` [Compound 24, 3-(3,7-dimethylocta-2,6-dien-1-yl)-2,4-dihydroxy-6-pentyl-N-phenylbenzenesulfonamide] here?
A: 0.1 to 0.49 µM

Q: And the IC50 (human CB2 receptor; [2])?
A: < 0.1 µM

Q: And the “Selectivity CB2” value (human CB2 receptor)?
A: 61.50 fold

Q: With `CCCCCc1cc(O)c(C/C=C(\C)CCC=C(C)C)c(O)c1S(=O)(=O)NC` [Compound 20, 3-(3,7-dimethylocta-2,6-dien-1-yl)-2,4-dihydroxy-N-methyl-6-pentylbenzenesulfonamide] as the molecule, how does the IC50 (human CB1 receptor) read?
A: > 1 µM

Q: What about the IC50 (human CB2 receptor) of the same molecule?
A: 0.1 to 0.49 µM

Q: And the “Selectivity CB2” value (human CB2 receptor)?
A: 3.93 fold

Q: Which results are given for `CCCCCc1cc(O)c(C/C=C(\C)CCC=C(C)C)c(O)c1C(=O)NS(=O)(=O)c1cccnc1` [Compound 66, 3-(3,7-dimethylocta-2,6-dien-1-yl)-2,4-dihydroxy-6-pentyl-N-(pyridin-3-ylsulfonyl)benzamide]?
A: IC50 (human CB1 receptor; [1]): > 1 µM; IC50 (human CB2 receptor; [2]): > 1 µM; Selectivity CB2 (human CB2 receptor): 1.88 fold

Q: With `CCCCCc1cc(O)c(C/C=C(\C)CCC=C(C)C)c(O)c1S(C)(=O)=O` [Compound 3, 2-(3,7-dimethylocta-2,6-dien-1-yl)-4-(methylsulfonyl)-5-pentylbenzene-1,3-diol] as the molecule, how does the IC50 (human CB1 receptor; [1]) read?
A: > 1 µM

Q: And the IC50 (human CB2 receptor; [2])?
A: 0.5 to 0.99 µM

Q: And the “Selectivity CB2” value (human CB2 receptor)?
A: 1.47 fold

Q: `CCCCCCNS(=O)(=O)c1c(CCCCC)cc(O)c(C/C=C(\C)CCC=C(C)C)c1O` [Compound 64, 3-(3,7-dimethylocta-2,6-dien-1-yl)-N-hexyl-2,4-dihydroxy-6-pentylbenzenesulfonamide] was tested. Which IC50 (human CB1 receptor; [1]) did it give?
A: > 1 µM

Q: What about the IC50 (human CB2 receptor; [2]) of the same molecule?
A: 0.1 to 0.49 µM

Q: What about the “Selectivity CB2” value (human CB2 receptor) of the same molecule?
A: 7.89 fold

Q: Which results are given for `CCCCCc1cc(O)c(C/C=C(\C)CCC=C(C)C)c(O)c1S(=O)(=O)NC1CCC1` [Compound 63, N-cyclobutyl-3-(3,7-dimethylocta-2,6-dien-1-yl)-2,4-dihydroxy-6-pentylbenzenesulfonamide]?
A: IC50 (human CB1 receptor; [1]): > 1 µM; IC50 (human CB2 receptor; [2]): < 0.1 µM; Selectivity CB2 (human CB2 receptor): 24.80 fold

Q: For `CCCCCc1cc(O)c(C/C=C(\C)CCC=C(C)C)c(O)c1C(=O)NS(=O)(=O)c1ccccc1` [Compound 58, 3-(3,7-dimethylocta-2,6-dien-1-yl)-2,4-dihydroxy-6-pentyl-N-(phenylsulfonyl)benzamide], which IC50 (human CB1 receptor; [1]) is on record?
A: > 1 µM

Q: And the IC50 (human CB2 receptor; [2])?
A: > 1 µM

Q: What about the “Selectivity CB2” value (human CB2 receptor) of the same molecule?
A: 1.88 fold

Q: `CCCCCc1cc(O)c(C/C=C(\C)CCC=C(C)C)c(O)c1S(=O)(=O)N1CCOCC1` [Compound 28, 2-(3,7-dimethylocta-2,6-dien-1-yl)-4-(morpholinosulfonyl)-5-pentylbenzene-1,3-diol] was tested. Which IC50 (human CB1 receptor; [1]) did it give?
A: 0.5 to 0.99 µM

Q: And the IC50 (human CB2 receptor; [2])?
A: < 0.1 µM

Q: What about the “Selectivity CB2” value (human CB2 receptor) of the same molecule?
A: 266.67 fold

Q: How did the IC50 (human CB1 receptor; [1]) turn out when `C=CCNS(=O)(=O)c1c(CCCCC)cc(O)c(C/C=C(\C)CCC=C(C)C)c1O` [Compound 65, N-allyl-3-(3,7-dimethylocta-2,6-dien-1-yl)-2,4-dihydroxy-6-pentylbenzenesulfonamide] was run?
A: > 1 µM

Q: What about the IC50 (human CB2 receptor; [2]) of the same molecule?
A: < 0.1 µM

Q: What about the “Selectivity CB2” value (human CB2 receptor) of the same molecule?
A: 25.50 fold

From patent publication US12084407B2, “Cannabigerol derivatives and use thereof as cannabinoid receptor modulators” (CANOPY GROWTH CORPORATION, priority 2019, dated 2024)
